System: HepG2 cell culture
Assay: Cell toxicity in vitro, Cell Titer Glo cell viability (ATP)
Format: cell-based, human
Conditions: Figure 3
Experimental: Cell viability was estimated by the quantity of ATP produced by the HepG2 cell culture, derived from human liver hepatocellular carcinoma. Experiments were performed using a Cell Titer Glo Cell Viability (Promega) test system ([17]). Tubercidin, an inhibitor of various cellular metabolic processes, including RNA processing, nucleic acid synthesis, protein synthesis, and methylation of tRNA through intracellular incorporation into nucleic acids, was used as a positive control ([18]). Median inhibitory concentration (IC50) was used as a quantitative parameter to evaluate cell toxicity. To evaluate inhibition effectiveness (% Inh), the following formula was used: % Inh = [(Lpos − Lexp)/(Lpos − Lneg)] ^* 100%, where Lpos is the positive control (luminescence in cells with no compound); Lneg is the negative control (luminescence in cells containing medium but no cells); and Lexp is the luminescence in cells containing the compound at a certain concentration. IC50 values were calculated using Prism 5 and the criteria for minimization of the experimental points squares deviation from the theoretically calculated curve algorithm.

Question: With `O=S1(=O)COc2cc(-c3ccc(OCC4CCN(c5ncc(Cl)cn5)CC4)c(F)c3)ccc21` [ZB-16] as the molecule, how does the “effect on HepG2 cell culture viability” value read?
Answer: no effect
